From ChEMBL document CHEMBL4138126, “Synthesis, antiproliferative, anti-tubulin activity, and docking study of new 1,2,4-triazoles as potential combretastatin analogues” (Eur J Med Chem, 2017) come the findings set out here.

What all share (type): functional
Experiment [1] has as its system HepG2. Description: Induction of cell cycle arrest in human HepG2 cells assessed as accumulation at S phase at cytotoxic IC50 by propidium iodide staining based flow cytometry (reference value: 25.2%).
For experiment [2], the system named is HepG2. Description: Induction of cell cycle arrest in human HepG2 cells assessed as accumulation at G1 phase at cytotoxic IC50 by propidium iodide staining based flow cytometry (reference value: 66.4%). (In general: Flow cytometry measures light scatter and fluorescence of single cells or particles in a stream.)
Experiment [3] concerns HepG2. Description: Induction of apoptosis in human HepG2 cells assessed as necrotic cells level at 1.41 uM by Annexin V and propidium iodide staining based flow cytometry.
The test system of experiment [4] is HepG2. Description: Induction of cell cycle arrest in human HepG2 cells assessed as accumulation at G2 phase at cytotoxic IC50 by propidium iodide staining based flow cytometry (reference value: 7.2%).
Experiment [5] has as its system HepG2. Description: Induction of apoptosis in human HepG2 cells assessed as late apoptotic cells level at 1.41 uM by Annexin V and propidium iodide staining based flow cytometry.
For experiment [6], the system named is HepG2. Description: Induction of apoptosis in human HepG2 cells assessed as early apoptotic cells level at 1.41 uM by Annexin V and propidium iodide staining based flow cytometry.
For experiment [7], the system named is HepG2. Description: Induction of apoptosis in human HepG2 cells at cytotoxic IC50 by propidium iodide staining based flow cytometry (reference value: 1.2%).

As for `CCOc1ccc(-n2nc(C(=O)NCc3cc(F)cc(F)c3)nc2-c2cc(OC)c(OC)c(OC)c2)cc1`, the Activity came out at 26.3% in the experiment with HepG2 [1]; 35.4% in the experiment on HepG2 [2]; 3% with HepG2 [3]; 21.6% in the experiment on HepG2 [4]; 14% in the experiment on HepG2 [5]; 21% in the experiment on HepG2 [6]. Besides, in the experiment on HepG2 [7], the Activity is 16.7%.
